Earlier results on one compound are cited in patent US20090239812A1, “USE OF C7 SUGARS IN PREVENTION AND TREATMENT OF MYCOSES” (Laboratoires Expanscience, priority 2006, published 2009).

This data set relates to Ehrlich's ascites tumor cells. The note with it: perseitol associated with a potassium ion; Shibuya et al. 1999.

On to `OCC(O)C(O)C(O)C(O)C(O)CO` (stereo not shown) [perseitol, Perseitol], for which the “incorporation of 3H-leucine” value was “inhibits”.
